From ChEMBL document CHEMBL1201862, “PubChem BioAssay data set” (2004)
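These data come from cells grown in 96-well plates and exposed to compound for 48 hours at five concentrations. The concentration for 50% growth inhibition is given as GI50.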 Active and inactive are the calls of the source. Cut-off read from the data, not from the text of the source: active = GI50 up to about 1.1 µM and inactive = higher.

What was measured:
Assay in all cases: growth of human tumour cells (NCI), 48 h
[1] = tested on: A498
[2] = tested on: CAKI-1
[3] = tested on: DU-145
[4] = tested on: HCC 2998
[5] = tested on: HCT-116
[6] = tested on: IGROV-1
[7] = tested on: KM12
[8] = tested on: LOX IMVI
[9] = tested on: M14
[10] = tested on: NCI-H226
[11] = tested on: NCI-H522
[12] = tested on: PC-3
[13] = tested on: RPMI-8226
[14] = tested on: SF-539
[15] = tested on: SK-MEL-2
[16] = tested on: SW-620
[17] = tested on: T47D
[18] = tested on: UACC-257
[19] = tested on: HOP-62

Structure (SMILES) | GI50 [1] | GI50 [2] | GI50 [3] | GI50 [4] | GI50 [5] | GI50 [6] | GI50 [7] | GI50 [8] | GI50 [9] | GI50 [10] | GI50 [11] | GI50 [12] | GI50 [13] | GI50 [14] | GI50 [15] | GI50 [16] | GI50 [17] | GI50 [18] | GI50 [19]
COC(=O)C1=C(O)CCCC(CCC(C)=O)=C1 | > 100 µM (inactive) | 47.6 µM (inactive) | 41.2 µM (inactive) | > 100 µM (inactive) | 17.5 µM (inactive) | 41.2 µM (inactive) | 80.2 µM (inactive) | 38.2 µM (inactive) | 47 µM (inactive) | > 100 µM (inactive) | 12.5 µM (inactive) | > 100 µM (inactive) | 29.4 µM (inactive) | 22.2 µM (inactive) | > 100 µM (inactive) | 31.6 µM (inactive) | 35.6 µM (inactive) | 98.4 µM (inactive) | 
Cc1nc2ccccc2nc1N1CCCC1 | > 100 µM (inactive) | > 100 µM (inactive) | > 100 µM (inactive) | > 100 µM (inactive) | > 100 µM (inactive) | > 100 µM (inactive) | > 100 µM (inactive) | > 100 µM (inactive) | > 100 µM (inactive) | > 100 µM (inactive) | > 100 µM (inactive) | > 100 µM (inactive) | > 100 µM (inactive) |  | > 100 µM (inactive) | > 100 µM (inactive) | > 100 µM (inactive) | > 100 µM (inactive) | > 100 µM (inactive)
Cn1c(-c2ccccc2)cc(-c2ccc3c(c2)OCO3)c1-c1cccs1 | > 100 µM (inactive) |  | > 100 µM (inactive) | > 100 µM (inactive) | 96.8 µM (inactive) | > 100 µM (inactive) | > 100 µM (inactive) | > 100 µM (inactive) | > 100 µM (inactive) | > 100 µM (inactive) |  | > 100 µM (inactive) | > 100 µM (inactive) | > 100 µM (inactive) | > 100 µM (inactive) | > 100 µM (inactive) | > 100 µM (inactive) | > 100 µM (inactive) | > 100 µM (inactive)
CN1CC2=C(N=C(S)NC2c2ccccc2Cl)/C(=C/c2ccccc2Cl)C1 (centres undefined) | 77.3 µM (inactive) | > 100 µM (inactive) | 76.2 µM (inactive) | > 100 µM (inactive) | 30.9 µM (inactive) | 53.7 µM (inactive) | 56.1 µM (inactive) | 51.1 µM (inactive) | 38.9 µM (inactive) | 52.7 µM (inactive) | 29.6 µM (inactive) | 26.5 µM (inactive) |  | 73.6 µM (inactive) | 69 µM (inactive) | > 100 µM (inactive) | 58.3 µM (inactive) | 55.8 µM (inactive) | > 100 µM (inactive)
COc1cc([C@@H]2c3cc4c(cc3[C@@H](c3c(O)cc(O)c5c3O[C@H](c3ccc(O)c(O)c3)[C@@H](O)C5)[C@H]3COC(=O)[C@H]23)OCO4)cc(OC)c1OC | 1.6 µM (inactive) | 1.97 µM (inactive) | 1.73 µM (inactive) | 1.8 µM (inactive) | 21.1 µM (inactive) | 44.6 µM (inactive) | 1.76 µM (inactive) | 25.6 µM (inactive) | 25.1 µM (inactive) |  | 14.1 µM (inactive) | 1.75 µM (inactive) | 19.6 µM (inactive) | 17.6 µM (inactive) | 1.88 µM (inactive) | 32 µM (inactive) | 2.24 µM (inactive) | 1.95 µM (inactive) | 1.88 µM (inactive)
CC(C)(Cl)C(Br)CC/C(=C/CCl)CBr.CC(C)(Cl)C(Br)CC/C(=C\CCl)CBr (centres undefined) | 4.94 µM (inactive) |  | 3.32 µM (inactive) | 1.58 µM (inactive) | 1.77 µM (inactive) | 2.31 µM (inactive) | 1.83 µM (inactive) |  | 1.9 µM (inactive) | 18.7 µM (inactive) | 0.998 µM (active) | 2.61 µM (inactive) | 1.17 µM (inactive) | 1.88 µM (inactive) | 3.21 µM (inactive) | 1.92 µM (inactive) | 1.08 µM (active) | 2.5 µM (inactive) | 4.1 µM (inactive)
CCC1c2[nH]c3ccccc3c2C[C@H]2C(=O)N3CCC[C@H]3C(=O)N12 (some centres undefined) | > 100 µM (inactive) | > 100 µM (inactive) | > 100 µM (inactive) | > 100 µM (inactive) | 60.7 µM (inactive) | > 100 µM (inactive) | 71.1 µM (inactive) | > 100 µM (inactive) | > 100 µM (inactive) | > 100 µM (inactive) | 75.7 µM (inactive) | 37.4 µM (inactive) | 50.9 µM (inactive) |  | > 100 µM (inactive) | 92.9 µM (inactive) | 67.8 µM (inactive) | 48.6 µM (inactive) | > 100 µM (inactive)
C[C@H](OC(=O)/C=C/c1ccc(O)c(O)c1)[C@H](C)OC(=O)/C=C/c1ccc(O)c(O)c1 | 17.1 µM (inactive) | 7.89 µM (inactive) | 11.6 µM (inactive) | 11.5 µM (inactive) | 3.72 µM (inactive) | 5.2 µM (inactive) | 5.25 µM (inactive) | 3.35 µM (inactive) | 6.19 µM (inactive) |  | 6.98 µM (inactive) | 13.1 µM (inactive) | 9.59 µM (inactive) | 9.48 µM (inactive) | 10.4 µM (inactive) | 3.93 µM (inactive) | 4.41 µM (inactive) | 10.1 µM (inactive) | 11.1 µM (inactive)
O=C(O)CNC(=O)C1NC(C(F)(F)F)(C(F)(F)F)OC1(C(F)(F)F)C(F)(F)F (centres undefined) | > 100 µM (inactive) | > 100 µM (inactive) | > 100 µM (inactive) |  | > 100 µM (inactive) | > 100 µM (inactive) | > 100 µM (inactive) | > 100 µM (inactive) | > 100 µM (inactive) | > 100 µM (inactive) | > 100 µM (inactive) | > 100 µM (inactive) | > 100 µM (inactive) | > 100 µM (inactive) | > 100 µM (inactive) | > 100 µM (inactive) | > 100 µM (inactive) | > 100 µM (inactive) | > 100 µM (inactive)
O=C(N/N=C/c1ccccc1)c1cccc2nc3ccccc3nc12 | 77.4 µM (inactive) | > 100 µM (inactive) | 17.9 µM (inactive) |  | > 100 µM (inactive) | 63.5 µM (inactive) | 54 µM (inactive) | 29.9 µM (inactive) | 35 µM (inactive) | 38.7 µM (inactive) | 44.8 µM (inactive) | > 100 µM (inactive) | > 100 µM (inactive) | > 100 µM (inactive) | > 100 µM (inactive) | > 100 µM (inactive) | > 100 µM (inactive) | > 100 µM (inactive) | 4.15 µM (inactive)
CC(C)=NOC(=O)OC[C@H]1O[C@@H](n2cnc3c(N)ncnc32)C(O)C1O (some centres undefined) | > 100 µM (inactive) |  | > 100 µM (inactive) | > 100 µM (inactive) |  | > 100 µM (inactive) | > 100 µM (inactive) | 44.9 µM (inactive) | 87.7 µM (inactive) | > 100 µM (inactive) | > 100 µM (inactive) | > 100 µM (inactive) | 52 µM (inactive) | > 100 µM (inactive) | > 100 µM (inactive) | 89.3 µM (inactive) | > 100 µM (inactive) |  | > 100 µM (inactive)
COc1cc(Nc2nc3ccccc3nc2C(=O)O)cc(OC)c1OC | 35 µM (inactive) | 16.4 µM (inactive) | > 100 µM (inactive) | 69.3 µM (inactive) | > 100 µM (inactive) | 78.3 µM (inactive) | > 100 µM (inactive) | 53 µM (inactive) | 73.6 µM (inactive) | > 100 µM (inactive) | 46 µM (inactive) | > 100 µM (inactive) | 70 µM (inactive) | > 100 µM (inactive) |  | > 100 µM (inactive) | 24.3 µM (inactive) | 87.3 µM (inactive) | 22.8 µM (inactive)
CC(C)(Oc1ccc(Cl)cc1)C(=O)N(C(=O)N1CCC(c2ccccc2)CC1)c1ccccc1 | > 82.8 µM (inactive) | 46 µM (inactive) | > 100 µM (inactive) | 41.4 µM (inactive) | 4.78 µM (inactive) | > 53.2 µM (inactive) | 15.5 µM (inactive) | 22.9 µM (inactive) | 65 µM (inactive) | > 61 µM (inactive) |  | 5.51 µM (inactive) | 2.99 µM (inactive) | > 100 µM (inactive) | > 59.7 µM (inactive) | 22.4 µM (inactive) | 7 µM (inactive) | 11 µM (inactive) | > 100 µM (inactive)
N#Cc1nc(C(O)c2ccccc2)oc1N (centres undefined) | > 100 µM (inactive) | > 100 µM (inactive) | > 100 µM (inactive) |  | > 100 µM (inactive) | > 100 µM (inactive) | > 100 µM (inactive) | > 100 µM (inactive) | > 100 µM (inactive) | > 100 µM (inactive) | 76.6 µM (inactive) | > 100 µM (inactive) | > 100 µM (inactive) | > 100 µM (inactive) | > 100 µM (inactive) | > 100 µM (inactive) | > 100 µM (inactive) | > 100 µM (inactive) | > 100 µM (inactive)
COc1ccc2[nH]c3c(c2c1)CC(=O)N1CCC[C@H](C1)CC31OCCCO1 | > 100 µM (inactive) | > 100 µM (inactive) | > 100 µM (inactive) | > 100 µM (inactive) | > 100 µM (inactive) | 92.7 µM (inactive) | > 100 µM (inactive) |  | > 100 µM (inactive) | > 100 µM (inactive) |  | > 100 µM (inactive) | > 100 µM (inactive) |  | > 100 µM (inactive) | > 100 µM (inactive) | > 100 µM (inactive) | > 100 µM (inactive) | > 100 µM (inactive)
